Source: patent US8450243B2, “Herbicidal quinoline and 1,8-naphthyridine compounds” (Syngenta Limited, priority 2009, dated 2013)

Assays:
Type in all cases: in vivo
[1] = tested on: Abuthilon theophrasti (ABUTH); test: Herbicidal glasshouse test, post-emergence; settings: POST Application, evaluated after 13 days; for damage to plant (100=total damage to plant; 0=no damage to plant): 250 g/ha; for pest or weed control at 250 g/ha: Abutilon theophrasti, post-emergence, 312 h, read-out: damage to plant (100=total damage to plant; 0=no damage to plant)
Experimental: (§1) Seeds of a variety of test species were sown in standard soil in pots (Alopecurus myosuroides (ALOMY), Setaria faberi (SETFA), Echinochloa crus-galli (ECHCG), Abuthilon theophrasti (ABUTH) and Amaranthus retoflexus (AMARE)). After cultivation for one day (pre-emergence) or after 8 days cultivation (post-emergence) under controlled conditions in a glasshouse (at 24/16° C., day/night; 14 hours light; 65% humidity), the plants were sprayed with an aqueous spray solution derived from the formulation of the technical active ingredient in acetone/water (50:50) solution containing 0.5% Tween 20 (polyoxyethelyene sorbitan monolaurate, CAS RN 9005-64-5). Compounds were applied at 250 g/ha. The test plants were then grown in a glasshouse under controlled conditions in a glasshouse (at 24/16° C., day/night; 14 hours light; 65% humidity) and watered twice daily. After 13 days for pre and post-emergence, the test was evaluated (100=total damage to plant; 0=no damage to plant).

[2] = tested on: Alopecurus myosuroides (ALOMY); test: Herbicidal glasshouse test, post-emergence; settings: POST Application, evaluated after 13 days; for damage to plant (100=total damage to plant; 0=no damage to plant): 250 g/ha; for pest or weed control at 250 g/ha: Alopecurus myosuroides, post-emergence, 312 h, read-out: damage to plant (100=total damage to plant; 0=no damage to plant)
Experimental: as §1

[3] = tested on: Amaranthus retoflexus (AMARE); test: Herbicidal glasshouse test, post-emergence; settings: POST Application, evaluated after 13 days; for damage to plant (100=total damage to plant; 0=no damage to plant): 250 g/ha; for pest or weed control at 250 g/ha: Amaranthus retroflexus, post-emergence, 312 h, read-out: damage to plant (100=total damage to plant; 0=no damage to plant)
Experimental: as §1

[4] = tested on: Echinochloa crus-galli (ECHCG); test: Herbicidal glasshouse test, post-emergence; settings: POST Application, evaluated after 13 days; for damage to plant (100=total damage to plant; 0=no damage to plant): 250 g/ha; for pest or weed control at 250 g/ha: Echinochloa crus-galli, post-emergence, 312 h, read-out: damage to plant (100=total damage to plant; 0=no damage to plant)
Experimental: as §1

Setaria faberi (SETFA) [5] = test: Herbicidal glasshouse test, post-emergence; settings: POST Application, evaluated after 13 days; for damage to plant (100=total damage to plant; 0=no damage to plant): 250 g/ha; for pest or weed control at 250 g/ha: Setaria faberi, post-emergence, 312 h, read-out: damage to plant (100=total damage to plant; 0=no damage to plant)
Experimental: as §1

[6] = tested on: Abuthilon theophrasti (ABUTH); test: Herbicidal glasshouse test, pre-emergence; settings: PRE Application, evaluated after 13 days; for damage to plant (100=total damage to plant; 0=no damage to plant): 250 g/ha; for pest or weed control at 250 g/ha: Abutilon theophrasti, pre-emergence, 312 h, read-out: damage to plant (100=total damage to plant; 0=no damage to plant)
Experimental: as §1

[7] = tested on: Alopecurus myosuroides (ALOMY); test: Herbicidal glasshouse test, pre-emergence; settings: PRE Application, evaluated after 13 days; for damage to plant (100=total damage to plant; 0=no damage to plant): 250 g/ha; for pest or weed control at 250 g/ha: Alopecurus myosuroides, pre-emergence, 312 h, read-out: damage to plant (100=total damage to plant; 0=no damage to plant)
Experimental: as §1

[8] = tested on: Amaranthus retoflexus (AMARE); test: Herbicidal glasshouse test, pre-emergence; settings: PRE Application, evaluated after 13 days; for damage to plant (100=total damage to plant; 0=no damage to plant): 250 g/ha; for pest or weed control at 250 g/ha: Amaranthus retroflexus, pre-emergence, 312 h, read-out: damage to plant (100=total damage to plant; 0=no damage to plant)
Experimental: as §1

[9] = tested on: Echinochloa crus-galli (ECHCG); test: Herbicidal glasshouse test, pre-emergence; settings: PRE Application, evaluated after 13 days; for damage to plant (100=total damage to plant; 0=no damage to plant): 250 g/ha; for pest or weed control at 250 g/ha: Echinochloa crus-galli, pre-emergence, 312 h, read-out: damage to plant (100=total damage to plant; 0=no damage to plant)
Experimental: as §1

Setaria faberi (SETFA) [10] = test: Herbicidal glasshouse test, pre-emergence; settings: PRE Application, evaluated after 13 days; for damage to plant (100=total damage to plant; 0=no damage to plant): 250 g/ha; for pest or weed control at 250 g/ha: Setaria faberi, pre-emergence, 312 h, read-out: damage to plant (100=total damage to plant; 0=no damage to plant)
Experimental: as §1

Compound	damage to plant (100=total damage to plant; 0=no damage to plant) [1]	damage to plant (100=total damage to plant; 0=no damage to plant) [2]	damage to plant (100=total damage to plant; 0=no damage to plant) [3]	damage to plant (100=total damage to plant; 0=no damage to plant) [4]	damage to plant (100=total damage to plant; 0=no damage to plant) (Setaria faberi (SETFA) [5])	damage to plant (100=total damage to plant; 0=no damage to plant) [6]	damage to plant (100=total damage to plant; 0=no damage to plant) [7]	damage to plant (100=total damage to plant; 0=no damage to plant) [8]	damage to plant (100=total damage to plant; 0=no damage to plant) [9]	damage to plant (100=total damage to plant; 0=no damage to plant) (Setaria faberi (SETFA) [10])	pest or weed control at 250 g/ha [1]	pest or weed control at 250 g/ha [2]	pest or weed control at 250 g/ha [3]	pest or weed control at 250 g/ha [4]	pest or weed control at 250 g/ha (Setaria faberi (SETFA) [5])	pest or weed control at 250 g/ha [6]	pest or weed control at 250 g/ha [7]	pest or weed control at 250 g/ha [8]	pest or weed control at 250 g/ha [9]	pest or weed control at 250 g/ha (Setaria faberi (SETFA) [10])
Cc1ccc(-n2c(=O)c(C(=O)C3C(=O)CCCC3=O)cc3cc(F)cnc32)cc1 [Compound 4.24]	90	70	80	80	80	100	80	100	100	90	–	–	–	–	–	–	–	–	–	–
Cc1ccc2cc(C(=O)C3C(=O)CCCC3=O)c(=O)n(C)c2n1 [Compound 1.2, 2-(1,7-Dimethyl-2-oxo-1,2-dihydro[1,8]-naphthyridine-3-carbonyl)-cyclohexane-1,3-dione]	–	–	–	–	–	–	–	–	–	–	80%	40%	80%	80%	80%	70%	20%	40%	90%	70%
COc1ccc(-n2c(=O)c(C(=O)C3C(=O)CCCC3=O)cc3cc(F)cnc32)cn1 [Compound 4.20]	80	80	60	80	80	100	90	100	100	70	–	–	–	–	–	–	–	–	–	–
CCn1c(=O)c(C(=O)C2C(=O)CCCC2=O)cc2cc(F)cnc21 [Compound 1.49]	–	–	–	–	–	–	–	–	–	–	80%	70%	70%	80%	70%	90%	60%	100%	100%	90%
O=C1CCCC(=O)C1C(=O)c1cc2cc(F)cnc2n(CCC=C(F)F)c1=O [Compound 1.48]	80	70	40	80	80	90	80	100	100	90	–	–	–	–	–	–	–	–	–	–
CCCn1c(=O)c(C(=O)C2C(=O)CCCC2=O)cc2cc(F)cnc21 [Compound 1.50]	–	–	–	–	–	–	–	–	–	–	80%	70%	70%	80%	80%	90%	80%	90%	100%	100%
COCCn1c(=O)c(C(=O)C2C(=O)CCCC2=O)cc2cc(F)cnc21 [Compound 1.44]	–	–	–	–	–	–	–	–	–	–	90%	80%	80%	80%	80%	90%	90%	100%	100%	100%
